What was measured:
Autotaxin = Autotaxin (Homo sapiens, UniProt Q13822); experiment: Inhibition of human ATX using LPC (16:0) as substrate after 30 mins by horseradish peroxidase/choline oxidase coupled enzyme based spectrophotometric analysis
Cytochrome P450 3A4 = Cytochrome P450 3A4 (Homo sapiens, UniProt P08684); experiment: Time-dependent inhibition of human liver microsomes CYP3A4; assay type: ADME
Sequence of Cytochrome P450 3A4 (P08684 whole entry): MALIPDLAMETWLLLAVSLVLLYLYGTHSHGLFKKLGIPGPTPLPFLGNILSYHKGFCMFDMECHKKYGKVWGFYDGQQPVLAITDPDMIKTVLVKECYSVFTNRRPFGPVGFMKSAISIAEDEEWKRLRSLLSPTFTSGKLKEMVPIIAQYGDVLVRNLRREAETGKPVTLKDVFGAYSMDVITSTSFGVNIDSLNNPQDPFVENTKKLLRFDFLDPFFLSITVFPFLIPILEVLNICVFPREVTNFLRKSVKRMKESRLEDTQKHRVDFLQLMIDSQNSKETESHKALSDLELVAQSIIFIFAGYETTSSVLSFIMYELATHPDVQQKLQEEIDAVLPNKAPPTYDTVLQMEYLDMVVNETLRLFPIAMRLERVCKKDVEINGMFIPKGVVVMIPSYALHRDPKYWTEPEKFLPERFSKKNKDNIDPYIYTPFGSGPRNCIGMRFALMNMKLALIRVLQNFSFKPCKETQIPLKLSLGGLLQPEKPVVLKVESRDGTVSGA

IC50 (Autotaxin) [nM]	TDI (Cytochrome P450 3A4)	SMILES
103	Not Active	CCc1nc2c(C)cc(C3CCN(CC(=O)N4CC(O)C4)CC3)cn2c1N(C)c1nc(-c2ccc(F)cc2)c(C#N)s1
192	Active	CCc1nc2ccc(C3CCN(CC(=O)N4CC(O)C4)CC3)nn2c1N(C)c1ccc(C#N)c(-c2ccc(F)cc2)n1
60	Active	CCc1nc2ccc(N3CCN(CC(=O)N4CC(O)C4)CC3)nn2c1N(C)c1nc(-c2ccc(F)cc2)c(C#N)s1
